Experimental data published in patent publication US9012439B2, “Use of electrophilic compounds for inducing platelet production or maintaining platelet function” (University of Rochester, priority 2007, dated 2015).

Legend:
M07e cells = experiment: Platelet production from M07e cells (flow cytometry); format: cell-based; details: 10 μM, 24 h
Method: Meg-01 and M07e cells were purchased from the American Type Culture Collection (Rockville, Md.) and Dami cells were a generous gift from Dr. Patricia J. Simpson-Haidaris (University of Rochester). All cells were cultured in RPMI-1640 tissue culture medium (Invitrogen) supplemented with 5% fetal bovine serum (FBS; Invitrogen), 10 mM HEPES (N-2-hydroxyethylpiperazine-N′-2-ethanesulfonic acid; Sigma), 2 mM L-glutamine (Invitrogen), 4.5 g/L glucose (Invitrogen), and 50 μg/mL gentamicin (Invitrogen). M07e cells were also supplemented with 100 ng/mL of granulocyte monocyte-colony stimulating factor (GM-CSF, R&D Systems). All treatments were performed in normal growth media. Dimethyl sulfoxide (DMSO) was used as a vehicle (control) in the experiments described below.
Platelets were isolated from megakaryocytes by centrifugation at 150 xg for 10 min. Supernatants underwent sequential centrifugation (500 xg for 10 min and 1000×g for 10 min). The remaining platelet pellet was fixed then permeabilized with a CD61 or CD41 antibody. 7-AAD (BD Pharmingen) was added for 10 min before analyzing the cells by flow cytometry. […]

[1] = test system: primary human megakaryocytes; experiment: Platelet production from human cord blood CD34+-derived megakaryocytes; format: cell-based; details: 10 μM, 24 h
Method: Human CD34+ cord blood cells were obtained from the National Disease Research Interchange (NDRI, Philadelphia, Pa.). Cells were plated at 2.5×10^5 cells per well in a 12-well plate and cultured in serum-free medium as previously described (Zeuner et al., “Chemotherapy-induced Thrombocytopenia Derives from the Selective Death of Megakaryocyte Progenitors and Can Be Rescued by Stem Cell Factor,” Cancer Res 67:4767-4773 (2007), which is hereby incorporated by reference in its entirety) and supplemented with 100 ng/mL of rhTPO. After 14 days in culture, megakaryocytes were identified by staining with a CD61-FITC antibody and analyzed on a BD Biosciences FACSCalibur flow cytometer. Data were analyzed using FlowJo software (Treestar, Ashland, Oreg.). Cell images were captured using an inverted microscope (Olympus IX81). Platelets were isolated from megakaryocytes by centrifugation at 150 xg for 10 min. Supernatants underwent sequential centrifugation (500 xg for 10 min and 1000×g for 10 min). The remaining platelet pellet was fixed then permeabilized with a CD61 or CD41 antibody. 7-AAD (BD Pharmingen) was added for 10 min before analyzing the cells by flow cytometry. Platelets were identified using three well-described parameters (Patel et al., “The Biogenesis of Platelets from Megakaryocyte Proplatelets,” J Clin Invest 115:3348-3354 (2005); Breton-Gorius et al., “Expression of Platelet Proteins During the In Vitro and In Vivo Differentiation of Megakaryocytes and Morphological Aspects of Their Maturation,” Semin Hematol 23:43-67 (1986); Ogura et al., “Establishment of a Novel Human Megakaryoblastic Leukemia Cell Line, MEG-01, With Positive Philadelphia Chromosome,” Blood 66:1384-1392 (1985) and Franks et al., “A Fluorescence Microscopy Method for Quantifying Levels of Prostaglandin Endoperoxide H Synthase-1 and CD-41 in MEG-01 Cells,” Biol Proced Online 3:54-63 (2001), each of which is hereby incorporated by reference in its entirety), size (using normal human platelets as a control), presence of CD61 or CD41 and lack of DNA as determined by the absence of 7-AAD staining Ten thousand platelet events were collected and platelets were quantified by rate (platelet events/second) (Chung et al., “Platelet Activation in Acute, Decompensated Congestive Heart Failure,” Thromb Res 120:709-713 (2007), which is hereby incorporated by reference in its entirety.

C57BL/6 mice = experiment: Irradiation-induced thrombocytopenia (5 Gy total body irradiation); format: in vivo, mouse (C57BL/6)
Method: Seven or 8-week-old male C57BL/6 mice (Jackson Laboratories) were either exposed to 5 Gy cesium (Cs^137) total body irradiation (TBI) using a Model 8114 6000 Curie Shepherd Cs^137 irradiator (approximately 3200 Curie sealed Cs^137 source) with a dose rate of […] or left unexposed. Mice (n=4) received intravenous injections of vehicle (8% DMSO) or 15d-PGJ2 (1 mg/kg) or CDDO-Me (250 μg/kg) for 4 consecutive days from day 1 (days 1, 2, 3 and 4 post-irradiation). Blood was obtained from the aorta or the orbital sinus. Platelets were counted prior to radiation exposure and after radiation exposure on day 10, day 22, and day 31 in Example 7, or days 4, 10, 16, and 21 in Example 9 using the Heska® CBC-Diff™ Veterinary Analyzer (Fort Collins, Colo.). Data are expressed as average platelet counts from two separate experiments. For the unirradiated mice, platelets were counted on day 4, day 10, and day 15 in Example 7 or on the same days in Example 9.

## CCCCCC=CC=C1C(=O)C=C[C@@H]1CC=CCCCC(=O)O [15d-PGJ2, 15-deoxy-Δ^12,14 prostaglandin J2]
M07e cells
  platelet production: increased platelet production
[1]; CD61+ cells from cord blood CD34+ cells
  number of platelets generated from human megakaryocytes: doubled
[1]; human megakaryocytes, microscopy
  proplatelet formation: induced proplatelet formation
C57BL/6 mice; 1 mg/kg IV for 4 consecutive days
  weight versus vehicle-treated mice: no differences in weight
C57BL/6 mice; 5 Gy, 1 mg/kg IV days 1-4, by day 31
  platelet numbers: approximately 800,000 /μL
C57BL/6 mice; 5 Gy, 1 mg/kg IV days 1-4, day 22 and day 31
  platelet recovery compared to vehicle mice: accelerated platelet recovery
